The test system of the test is MV-4-11 cells. The test is described as follows: Gene expression microarray analysis (Affymetrix PrimeView) and GSEA. Particulars: ProbeSet 11755070_a_at; LIST D. The format is cell-based, human. Details: RFU PODN (11730768_x_at) / Fold change /veh PODN (11730768_x_at) / RFU LINC00158 (11744669_a_at) / Fold change /veh LINC00158 (11744669_a_at) / RFU DUSP10 (11751237_a_at) / Fold change /veh DUSP10 (11751237_a_at) / RFU ID3 (11757404_x_at) / Fold change /veh ID3 (11757404_x_at) / RFU PLEKHG5 (11737974_s_at) / Fold change /veh PLEKHG5 (11737974_s_at) / RFU LRRC4B (11730491_at) / Fold change /veh LRRC4B (11730491_at) / RFU GIMAP4 (11747438_a_at) / Fold change /veh GIMAP4 (11747438_a_at) / RFU KRT8 (11758183_x_at) / Fold change /veh KRT8 (11758183_x_at) / RFU CNN1 (11734310_a_at) / Fold change /veh CNN1 (11734310_a_at) / RFU VPS37D (11726825_at) / Fold change /veh VPS37D (11726825_at) / RFU C10orf10 (11716522_x_at) / Fold change /veh C10orf10 (11716522_x_at) / RFU KIR2DL2 /// KIR2DL4 /// KIR2DL5A /// KIR2DL5B /// KIR2DS1 /// KIR2DS2 /// KIR2DS3 /// KIR2DS4 /// KIR3DL3 /// KIR3DL3 /// KIR3DS1 (11738374_at) / Fold change /veh KIR2DL2 /// KIR2DL4 /// KIR2DL5A /// KIR2DL5B /// KIR2DS1 /// KIR2DS2 /// KIR2DS3 /// KIR2DS4 /// KIR3DL3 /// KIR3DL3 /// KIR3DS1 (11738374_at) / RFU C1QL1 (11718748_at) / Fold change /veh C1QL1 (11718748_at) / RFU TMPRSS4 (11747572_a_at) / Fold change /veh TMPRSS4 (11747572_a_at) / RFU HAMP (11756126_x_at) / Fold change /veh HAMP (11756126_x_at) / RFU RNFT2 (11725882_a_at) / Fold change /veh RNFT2 (11725882_a_at) / RFU NR4A2 (11747474_a_at) / Fold change /veh NR4A2 (11747474_a_at) / RFU ABCC12 (11746883_a_at) / Fold change /veh ABCC12 (11746883_a_at) / RFU TMEM136 (11760407_x_at) / Fold change /veh TMEM136 (11760407_x_at) / RFU CLDN22 /// WWC2 (11732394_at) / Fold change /veh CLDN22 /// WWC2 (11732394_at) / RFU HLA-DPB1 (11760878_x_at) / Fold change /veh HLA-DPB1 (11760878_x_at) / RFU SPINT1 (11716480_a_at) / Fold change /veh SPINT1 (11716480_a_at) / RFU GAP43 (11754022_s_at) / Fold change /veh GAP43 (11754022_s_at) / RFU A4GNT (11735810_at) / Fold change /veh A4GNT (11735810_at) / RFU PRB3 (11715151_x_at) / Fold change /veh PRB3 (11715151_x_at) / RFU TUBB4B (11761932_at) / Fold change /veh TUBB4B (11761932_at) / RFU CAPN14 (11732068_a_at) / Fold change /veh CAPN14 (11732068_a_at) / RFU TMCC2 (11721928_a_at) / Fold change /veh TMCC2 (11721928_a_at) / RFU IRGQ (11745062_a_at) / Fold change /veh IRGQ (11745062_a_at) / RFU FAM174B (11720279_a_at) / Fold change /veh FAM174B (11720279_a_at) / RFU TMPRSS4 (11748680_a_at) / Fold change /veh TMPRSS4 (11748680_a_at) / RFU FAM212B (11763350_a_at) / Fold change /veh FAM212B (11763350_a_at) / RFU PLEKHG5 (11743358_a_at) / Fold change /veh PLEKHG5 (11743358_a_at) / RFU ZSCAN30 (11745921_a_at) / Fold change /veh ZSCAN30 (11745921_a_at) / RFU CMKLR1 (11741424_a_at) / Fold change /veh CMKLR1 (11741424_a_at) / RFU LOC101060620 /// MAPK8IP1 (11723275_at) / Fold change /veh LOC101060620 /// MAPK8IP1 (11723275_at) / RFU SPTSSB (11747773_x_at) / Fold change /veh SPTSSB (11747773_x_at) / RFU PRSS12 (11739890_at) / Fold change /veh PRSS12 (11739890_at) / RFU BIN1 (11741810_x_at) / Fold change /veh BIN1 (11741810_x_at) / RFU WNT11 (11732464_a_at) / Fold change /veh WNT11 (11732464_a_at) / RFU C10orf10 (11716521_a_at) / Fold change /veh C10orf10 (11716521_a_at) / RFU C5orf56 (11738089_at) / Fold change /veh C5orf56 (11738089_at) / RFU CYB561 (11721691_x_at) / Fold change /veh CYB561 (11721691_x_at) / RFU ANKRD19P (11752326_a_at) / Fold change /veh ANKRD19P (11752326_a_at) / RFU OR2T12 /// OR2T33 /// OR2T8 (11738714_s_at) / Fold change /veh OR2T12 /// OR2T33 /// OR2T8 (11738714_s_at) / RFU VCAN (11748164_a_at) / Fold change /veh VCAN (11748164_a_at) / RFU JSRP1 (11732532_at) / Fold change /veh JSRP1 (11732532_at) / RFU KRTAP10-11 (11738290_x_at) / Fold change /veh KRTAP10-11 (11738290_x_at) / RFU MYO3A (11730013_a_at) / Fold change /veh MYO3A (11730013_a_at) / RFU EBF3 (11725865_a_at) / Fold change /veh EBF3 (11725865_a_at) / RFU CAMK2N1 (11719241_x_at) / Fold change /veh CAMK2N1 (11719241_x_at) / RFU C5orf56 (11738088_a_at) / Fold change /veh C5orf56 (11738088_a_at) / RFU OLFML3 (11715873_a_at) / Fold change /veh OLFML3 (11715873_a_at) / RFU LOC100653217 /// NTM (11731650_a_at) / Fold change /veh LOC100653217 /// NTM (11731650_a_at) / RFU MAPK11 (11762145_a_at) / Fold change /veh MAPK11 (11762145_a_at) / RFU FIZ1 (11724087_x_at) / Fold change /veh FIZ1 (11724087_x_at) / RFU OASL (11726364_x_at) / Fold change /veh OASL (11726364_x_at) / RFU SOX15 (11748057_x_at) / Fold change /veh SOX15 (11748057_x_at) / RFU CD79A (11719716_a_at) / Fold change /veh CD79A (11719716_a_at) / RFU HIST1H1D (11736915_at) / Fold change /veh HIST1H1D (11736915_at) / RFU CASKIN2 (11723855_a_at) / Fold change /veh CASKIN2 (11723855_a_at) / RFU LOC730098 (11760151_x_at) / Fold change /veh LOC730098 (11760151_x_at) / RFU OR4N2 (11742367_at) / Fold change /veh OR4N2 (11742367_at) / RFU PRRT2 (11749266_a_at) / Fold change /veh PRRT2 (11749266_a_at) / RFU SNX32 (11753110_a_at) / Fold change /veh SNX32 (11753110_a_at) / RFU CDHR5 (11726645_a_at) / Fold change /veh CDHR5 (11726645_a_at) / RFU RCAN1 (11760418_a_at) / Fold change /veh RCAN1 (11760418_a_at) / RFU FAM167A (11723789_a_at) / Fold change /veh FAM167A (11723789_a_at) / RFU FAM26E (11764081_at) / Fold change /veh FAM26E (11764081_at) / RFU ISYNA1 (11749810_s_at) / Fold change /veh ISYNA1 (11749810_s_at) / RFU ACY1 (11761880_at) / Fold change /veh ACY1 (11761880_at) / RFU 11764098_at / Fold change /veh 11764098_at / RFU SAMD14 (11745864_x_at) / Fold change /veh SAMD14 (11745864_x_at) / RFU NPB (11741838_a_at) / Fold change /veh NPB (11741838_a_at) / RFU TMPRSS6 (11731388_a_at) / Fold change /veh TMPRSS6 (11731388_a_at) / RFU KRTAP10-2 (11738614_at) / Fold change /veh KRTAP10-2 (11738614_at) / RFU ARHGAP8 /// PRR5-ARHGAP8 (11727945_x_at) / Fold change /veh ARHGAP8 /// PRR5-ARHGAP8 (11727945_x_at) / RFU KRTAP5-7 /// NADSYN1 (11734609_at) / Fold change /veh KRTAP5-7 /// NADSYN1 (11734609_at) / RFU RASL12 (11751679_a_at) / Fold change /veh RASL12 (11751679_a_at) / RFU CDKN2B (11736163_a_at) / Fold change /veh CDKN2B (11736163_a_at) / RFU PRF1 (11729649_at) / Fold change /veh PRF1 (11729649_at) / RFU, ZNF638 /// ZNF638-IT1 / Fold change vs veh, ZNF638 /// ZNF638-IT1 / RFU, PANK3 / Fold change vs veh, PANK3 / RFU, SH3YL1 / Fold change vs veh, SH3YL1 / RFU, ZEB2 / Fold change vs veh, ZEB2 / RFU, NRIP1 / Fold change vs veh, NRIP1 / RFU, PTTG1IP / Fold change vs veh, PTTG1IP / RFU, CAPN2 / Fold change vs veh, CAPN2 / RFU, MED14 / Fold change vs veh, MED14 / RFU, SNORA58 / Fold change vs veh, SNORA58 / RFU, C1orf63 / Fold change vs veh, C1orf63 / RFU, LRRFIP1 / Fold change vs veh, LRRFIP1 / RFU, NDUFAF7 / Fold change vs veh, NDUFAF7 / RFU, SLC12A2 / Fold change vs veh, SLC12A2 / RFU, IBTK / Fold change vs veh, IBTK / RFU, ESF1 / Fold change vs veh, ESF1 / Fold change vs veh, TMEM50B / RFU, TAOK1 / Fold change vs veh, TAOK1 / RFU, ACBD3 / Fold change vs veh, ACBD3 / RFU, TMA16 / Fold change vs veh, TMA16 / RFU, RWDD3 / Fold change vs veh, RWDD3 / RFU, BCAT1 / Fold change vs veh, BCAT1 / RFU, EDEM3 / Fold change vs veh, EDEM3 / RFU, TMEM33 / Fold change vs veh, TMEM33 / RFU, WDR75 / Fold change vs veh, WDR75 / RFU, AHCTF1 / Fold change vs veh, AHCTF1 / RFU, TFRC / Fold change vs veh, TFRC / RFU, ZDHHC17 / Fold change vs veh, ZDHHC17 / RFU, NOM1 / Fold change vs veh, NOM1 / RFU, ARL8B / Fold change vs veh, ARL8B / RFU, ZBTB11 / Fold change vs veh, ZBTB11 / RFU, TAMM41 / Fold change vs veh, TAMM41 / RFU, KIAA1704 /// LOC100996395 / Fold change vs veh, KIAA1704 /// LOC100996395 / RFU, ING1 / Fold change vs veh, ING1 / RFU, TRMT61B / Fold change vs veh, TRMT61B / RFU, FUBP3 / Fold change vs veh, FUBP3 / RFU, TP53 / Fold change vs veh, TP53 / RFU, TNKS2 / Fold change vs veh, TNKS2 / RFU, ZFP14 / Fold change vs veh, ZFP14 / RFU, ACTR2 / Fold change vs veh, ACTR2 / RFU, PPP3R1 / Fold change vs veh, PPP3R1 / RFU, PIK3R1 / Fold change vs veh, PIK3R1 / RFU, HNRNPA1 / Fold change vs veh, HNRNPA1 / RFU, RNF170 / Fold change vs veh, RNF170 / RFU, ZNF28 / Fold change vs veh, ZNF28 / RFU, RNGTT / Fold change vs veh, RNGTT / RFU, OGT / Fold change vs veh, OGT / RFU, BRD1 / Fold change vs veh, BRD1 / RFU, MARS / Fold change vs veh, MARS / RFU, ZNF655 / Fold change vs veh, ZNF655 / RFU, FAHD1 / Fold change vs veh, FAHD1 / RFU, BDP1 / Fold change vs veh, BDP1 / RFU, LRRCC1 / Fold change vs veh, LRRCC1 / RFU, ARID1A / Fold change vs veh, ARID1A / RFU, ZNF146 / Fold change vs veh, ZNF146 / RFU, ZNF330 / Fold change vs veh, ZNF330 / RFU, GPN3 / Fold change vs veh, GPN3 / RFU, C9orf123 / Fold change vs veh, C9orf123 / RFU, N4BP2L2 / Fold change vs veh, N4BP2L2 / RFU, ARFIP1 / Fold change vs veh, ARFIP1 / RFU, FAM179B / Fold change vs veh, FAM179B / RFU, BCL10 / Fold change vs veh, BCL10 / RFU, UHRF1BP1L / Fold change vs veh, UHRF1BP1L / RFU, BET1 / Fold change vs veh, BET1 / RFU, CNOT2 / Fold change vs veh, CNOT2 / RFU, ZNF268 / Fold change vs veh, ZNF268 / Fold change vs veh, ZNF507 / RFU, DGCR2 / Fold change vs veh, DGCR2 / RFU, WDSUB1 / Fold change vs veh, WDSUB1 / Fold change vs veh, HSP90B1 /// MIR3652 / RFU, ADSS / Fold change vs veh, ADSS / RFU, GK / Fold change vs veh, GK / RFU, ZNF148 / Fold change vs veh, ZNF148 / RFU, TAF9 / Fold change vs veh, TAF9 / RFU, SLC1A5 / Fold change vs veh, SLC1A5 / RFU, SLMO2 / Fold change vs veh, SLMO2 / RFU, ABCC4 / Fold change vs veh, ABCC4 / RFU, LOC101060439 /// RAP1B / Fold change vs veh, LOC101060439 /// RAP1B / RFU, RFX7 / Fold change vs veh, RFX7 / RFU, GTPBP10 / Fold change vs veh, GTPBP10 / RFU, CNEP1R1 / Fold change vs veh, CNEP1R1 / RFU, BIVM-ERCC5 /// ERCC5 / Fold change vs veh, BIVM-ERCC5 /// ERCC5 / RFU, ILF3 / Fold change vs veh, ILF3 / RFU 11762660_at / Fold change /veh 11762660_at / RFU VCAN (11757783_s_at) / Fold change /veh VCAN (11757783_s_at) / RFU DDX43 (11728927_at) / Fold change /veh DDX43 (11728927_at) / RFU KRT8 (11758188_x_at) / Fold change /veh KRT8 (11758188_x_at) / RFU NKD1 (11759106_at) / Fold change /veh NKD1 (11759106_at) / RFU SRD5A1 (11742802_a_at) / Fold change /veh SRD5A1 (11742802_a_at) / RFU TPSAB1 /// TPSB2 (11721975_s_at) / Fold change /veh TPSAB1 /// TPSB2 (11721975_s_at) / RFU GSTM3 (11746129_a_at) / Fold change /veh GSTM3 (11746129_a_at) / RFU IL23R (11737362_x_at) / Fold change /veh IL23R (11737362_x_at) / RFU TMEM51 (11727254_a_at) / Fold change /veh TMEM51 (11727254_a_at) / RFU PIWIL2 (11732686_x_at) / Fold change /veh PIWIL2 (11732686_x_at) / RFU ORM1 (11744905_x_at) / Fold change /veh ORM1 (11744905_x_at) / RFU CCDC152 (11743942_at) / Fold change /veh CCDC152 (11743942_at) / RFU ECM1 (11717891_a_at) / Fold change /veh ECM1 (11717891_a_at) / RFU IL23R (11748794_a_at) / Fold change /veh IL23R (11748794_a_at) / RFU TNFAIP8L3 (11732012_x_at) / Fold change /veh TNFAIP8L3 (11732012_x_at) / RFU MBOAT4 (11741988_at) / Fold change /veh MBOAT4 (11741988_at) / RFU 11764193_at / Fold change /veh 11764193_at / RFU TMEM53 (11763286_at) / Fold change /veh TMEM53 (11763286_at) / RFU MAGEB2 (11727129_at) / Fold change /veh MAGEB2 (11727129_at) / RFU TMEM200A (11744735_a_at) / Fold change /veh TMEM200A (11744735_a_at) / RFU CCDC152 (11751479_a_at) / Fold change /veh CCDC152 (11751479_a_at) / RFU FAM211A (11726209_a_at) / Fold change /veh FAM211A (11726209_a_at) / RFU RGS16 (11746705_a_at) / Fold change /veh RGS16 (11746705_a_at) / RFU VCAN (11755009_s_at) / Fold change /veh VCAN (11755009_s_at) / RFU RHOB (11743442_s_at) / Fold change /veh RHOB (11743442_s_at) / RFU RGS16 (11720943_a_at) / Fold change /veh RGS16 (11720943_a_at) / RFU RGS16 (11720944_at) / Fold change /veh RGS16 (11720944_at) / RFU, VPS4B / Fold change vs veh, VPS4B / RFU, CREB1 / Fold change vs veh, CREB1 / RFU, DNAJC13 / Fold change vs veh, DNAJC13 / RFU, GNAQ / Fold change vs veh, GNAQ / RFU, CDK5R1 / Fold change vs veh, CDK5R1 / RFU, ZRANB3 / Fold change vs veh, ZRANB3 / RFU, CUL4A / Fold change vs veh, CUL4A / RFU, CCNY / Fold change vs veh, CCNY / RFU, UFL1 / Fold change vs veh, UFL1 / RFU, COG3 / Fold change vs veh, COG3 / RFU, DIAPH2 / Fold change vs veh, DIAPH2 / RFU, SKA2 / Fold change vs veh, SKA2 / RFU, AFF3 / Fold change vs veh, AFF3 / RFU, LMF1 / Fold change vs veh, LMF1 / RFU, IPO11 / Fold change vs veh, IPO11 / RFU, DFFB / Fold change vs veh, DFFB / RFU, FOXP1 / Fold change vs veh, FOXP1 / RFU, CARD8 / Fold change vs veh, CARD8 / RFU, STRN3 / Fold change vs veh, STRN3 / RFU, ADK / Fold change vs veh, ADK / RFU, RASSF2 / Fold change vs veh, RASSF2 / RFU, WIPF1 / Fold change vs veh, WIPF1 / RFU, LARP1B / Fold change vs veh, LARP1B / RFU, RASA1 / Fold change vs veh, RASA1 / RFU, RB1 / Fold change vs veh, RB1 / RFU, PPFIA1 / Fold change vs veh, PPFIA1 / RFU, MAT2A / Fold change vs veh, MAT2A / RFU, CCT5 / Fold change vs veh, CCT5 / RFU, WDR92 / Fold change vs veh, WDR92 / RFU, CUX1 / Fold change vs veh, CUX1 / RFU, TTC7A / Fold change vs veh, TTC7A / RFU, TMEM135 / Fold change vs veh, TMEM135 / RFU, DEPTOR / Fold change vs veh, DEPTOR / RFU, CPM / Fold change vs veh, CPM / RFU, DNAJB6 / Fold change vs veh, DNAJB6 / RFU, CACNA2D3 / Fold change vs veh, CACNA2D3 / RFU, DTX4 / Fold change vs veh, DTX4 / RFU, TFCP2 / Fold change vs veh, TFCP2 / RFU, GMCL1 /// GMCL1P1 / Fold change vs veh, GMCL1 /// GMCL1P1 / RFU, AEBP2 / Fold change vs veh, AEBP2 / RFU, SNHG1 /// SNORD22 /// SNORD25 /// SNORD26 /// SNORD27 /// SNORD28 /// SNORD29 /// SNORD31 / Fold change vs veh, SNHG1 /// SNORD22 /// SNORD25 /// SNORD26 /// SNORD27 /// SNORD28 /// SNORD29 /// SNORD31 / Fold change (Aza/veh), C12orf56 (ProbeSet 11735607_a_at) / Fold change (ACY-1035/veh), C12orf56 (ProbeSet 11735607_a_at) / Fold change (Aza/veh), FGFR1OP (ProbeSet 11751329_s_at) / Fold change (ACY-1035/veh), FGFR1OP (ProbeSet 11751329_s_at) / Fold change (Aza/veh), VPS36 (ProbeSet 11739960_a_at) / Fold change (ACY-1035/veh), VPS36 (ProbeSet 11739960_a_at) / RFU SYPL1 (11715823_x_at) / Fold change /veh SYPL1 (11715823_x_at) / RFU IGFBP7 (11715501_s_at) / Fold change /veh IGFBP7 (11715501_s_at) / RFU REEP3 (11722064_at) / Fold change /veh REEP3 (11722064_at) / RFU IGLL1 (11728026_x_at) / Fold change /veh IGLL1 (11728026_x_at): dose or concentration left out as unconfirmed.

In the case of `Nc1ncn([C@@H]2O[C@H](CO)[C@@H](O)[C@H]2O)c(=O)n1` [azacitidine], the “Fold change vs veh, CARD8” value came out at 0.80.

The values above are taken from PMC5218480 (PLoS ONE, 2017).
